Measured values from US6596499B2, “Membrane molecule indicator compositions and methods” (The Netherlands Cancer Institute, priority 2000, dated 2003).

Assays:
PLC = format: cell-based, mouse
N1E-115 cells = details: N1E-115 and other cells; cited from earlier work

CCCCCCCC/C=C\CCCCCCCC(=O)OCC(O)COP(=O)(O)O (centres unmarked) [LPA, 1-oleoyl LPA]
translocation amplitude (PLC): 25 % of BK response control values | time for neurites to retract and cell soma to round up (N1E-115 cells): ≤ 60 s

NCCc1c[nH]cn1 [histamine]
duration of translocation response (long-lasting) (PLC): ≥ 15 min | translocation amplitude (PLC): 40 % of BK-induced peak values

neurokinin A [NKA]
desensitization of PLC activation on repeated stimulation (PLC): incremental partial homologous desensitization
